The supplement of paper PMC13380429

Tests used:
Settings in all cases: 72 h
HepG2 [1] = test: drug sensitivity score (DSS) for viability; higher = more toxic; extreme values may be limits of the assay
Calu-3 [2] = test: as above
Vero E6 [3] = test: as above
U2OS [4] = test: relative viability EC50 (midpoint between 100% and the lowest measured viability); higher = less toxic
Calu-3 [5] = test: as above
Vero E6 [6] = test: as above
U2OS [7] = test: cell viability relative to DMSO; higher = less toxic
Caco-2 [8] = test: as above
HepG2 [9] = test: as above
Calu-3 [10] = test: as above
Vero E6 [11] = test: as above
U2OS [12] = test: drug sensitivity score (DSS) for viability; higher = more toxic; extreme values may be limits of the assay
Caco-2 [13] = test: as above
Caco-2 [14] = test: relative viability EC50 (midpoint between 100% and the lowest measured viability); higher = less toxic

Row | Compound | drug sensitivity score (HepG2 [1]) | drug sensitivity score (Calu-3 [2]) | drug sensitivity score (Vero E6 [3]) | relative viability EC50 (U2OS [4]) [µM] | relative viability EC50 (Calu-3 [5]) [µM] | relative viability EC50 (Vero E6 [6]) [µM] | cell viability (U2OS [7]; 1 nM) [%] | cell viability (U2OS [7]; 10 nM) [%] | cell viability (U2OS [7]; 100 nM) [%] | cell viability (U2OS [7]; 1000 nM) [%] | cell viability (U2OS [7]; 10000 nM) [%] | cell viability (Caco-2 [8]; 1 nM) [%] | cell viability (Caco-2 [8]; 10 nM) [%] | cell viability (Caco-2 [8]; 100 nM) [%] | cell viability (Caco-2 [8]; 1000 nM) [%] | cell viability (Caco-2 [8]; 10000 nM) [%] | cell viability (HepG2 [9]; 1 nM) [%] | cell viability (HepG2 [9]; 10 nM) [%] | cell viability (HepG2 [9]; 100 nM) [%] | cell viability (HepG2 [9]; 1000 nM) [%] | cell viability (HepG2 [9]; 10000 nM) [%] | cell viability (Calu-3 [10]; 1 nM) [%] | cell viability (Calu-3 [10]; 10 nM) [%] | cell viability (Calu-3 [10]; 100 nM) [%] | cell viability (Calu-3 [10]; 1000 nM) [%] | cell viability (Calu-3 [10]; 10000 nM) [%] | cell viability (Vero E6 [11]; 1 nM) [%] | cell viability (Vero E6 [11]; 10 nM) [%] | cell viability (Vero E6 [11]; 100 nM) [%] | cell viability (Vero E6 [11]; 1000 nM) [%] | cell viability (Vero E6 [11]; 10000 nM) [%] | drug sensitivity score (U2OS [12]) | drug sensitivity score (Caco-2 [13]) | relative viability EC50 (Caco-2 [14]) [µM]
1 | Nn1cnc2cc3ccccc3cc2c1=O [centazolone] | 0 | 0 | 0 |  |  |  |  |  |  |  |  |  |  |  |  |  |  |  |  |  |  |  |  |  |  |  |  |  |  |  |  |  |  | 
2 | CCCCCCC[N+](CC)(CC)CCCCc1ccc(Cl)cc1 [clofilium] | 0.6 | 0 | 0 | > 10 | > 10 | > 10 | 95.7 | 95.6 | 97.7 | 93 | 92.2 | 114 | 106 | 101 | 108 | 54.4 | 94.1 | 124 | 135 | 122 | 72.5 | 83.9 | 106 | 91.8 | 93.6 | 87.7 | 89 | 102 | 95.2 | 104 | 116 | 0 | 1.9 | 
3 | COc1cc(C(=O)OCCCN2CCCN(CCCOC(=O)c3cc(OC)c(OC)c(OC)c3)CC2)cc(OC)c1OC [dilazep] | 3.3 | 0 | 1.8 | > 10 | > 10 | > 10 | 98.9 | 101 | 99.6 | 103 | 84.6 | 91.6 | 98.3 | 97.1 | 97.1 | 73.6 | 104 | 89.5 | 102 | 82.4 | 70.4 | 112 | 102 | 93.9 | 103 | 88.1 | 98.5 | 97.3 | 100 | 88.6 | 79.1 | 0.2 | 1.5 | 
4 | COc1ccc2[nH]c([S@@+]([O-])Cc3ncc(C)c(OC)c3C)nc2c1 [esomeprazole] |  | 0 | 0 | > 10 | > 10 | > 10 | 102 | 102 | 95 | 102 | 95.8 | 97.2 | 101 | 101 | 102 | 83.1 |  |  |  |  |  | 98.3 | 108 | 110 | 96.9 | 103 | 93.8 | 108 | 100 | 97.8 | 107 | 0 | 0.3 | > 10
5 | CCC1(C)CC(=O)NC1=O (centres undefined) [ethosuximide] |  | 0 | 0 | > 10 | > 10 | > 10 | 102 | 93.4 | 102 | 99.6 | 100 | 87 | 77.2 | 88.5 | 84.8 | 84.6 |  |  |  |  |  | 110 | 93.6 | 89.8 | 107 | 94 | 99.2 | 106 | 101 | 103 | 96.6 | 0 | 0 | > 10
6 | O=C(Nc1cccc2cccnc12)c1ccc(N2C(=O)[C@@H]3[C@H](C2=O)[C@H]2C=C[C@@H]3C2)cc1 [exo-IWR-1] | 0.5 | 0 | 0 |  |  |  | 99.1 | 104 | 99.6 | 108 | 104 | 92.2 | 100 | 103 | 102 | 106 | 105 | 99.3 | 103 | 87.9 | 92 | 87.4 | 103 | 107 | 103 | 102 | 94.2 | 93.1 | 92.2 | 97.1 | 106 | 0 | 0 | 
7 | CN1CCN(c2c(F)cc3c(=O)c(C(=O)O)cn(CCF)c3c2F)CC1 [fleroxacin] |  | 0 | 0 | > 10 | > 10 | > 10 | 96.5 | 93.6 | 104 | 97.1 | 102 | 102 | 97.2 | 100 | 96.8 | 107 |  |  |  |  |  | 88 | 106 | 102 | 108 | 107 | 102 | 105 | 97.6 | 101 | 98.1 | 0 | 0 | > 10
8 | Nc1nnc(-c2cccc(Cl)c2Cl)c(N)n1 [lamotrigine] |  | 0 |  |  |  |  |  |  |  |  |  |  |  |  |  |  |  |  |  |  |  |  |  |  |  |  |  |  |  |  |  | 0 |  | 
9 | CC(=O)CC(=O)O [lithium-acetoacetate] |  | 0 | 0 | > 10 | > 10 | > 10 | 98.6 | 101 | 98.1 | 102 | 96.8 | 94 | 104 | 101 | 109 | 99.3 |  |  |  |  |  | 98.2 | 101 | 98.9 | 99 | 100 | 103 | 104 | 103 | 97.7 | 105 | 0 | 0 | > 10
10 | CC(C)(C)NCC(O)c1cc(Cl)c(N)c(C(F)(F)F)c1 (centres undefined) [mabuterol] |  | 0 | 0 | > 10 | > 10 | > 10 | 97.2 | 93.6 | 98.8 | 97.7 | 93.3 | 87.6 | 110 | 99.1 | 112 | 85.7 |  |  |  |  |  | 102 | 97 | 99.6 | 92.8 | 98.2 | 89.1 | 92 | 92.4 | 91.6 | 104 | 0 | 0.1 | > 10
11 | Cc1ccc(Cl)c(Nc2ccccc2C(=O)O)c1Cl [meclofenamic-acid] |  | 0 | 0 | > 10 | > 10 | > 10 | 99.3 | 103 | 97.1 | 105 | 96.2 | 97.6 | 103 | 95.8 | 102 | 91.2 |  |  |  |  |  | 98.2 | 101 | 88.1 | 109 | 91.8 | 105 | 93.7 | 102 | 101 | 96.5 | 0 | 0 | > 10
12 | COc1ccccc1OC(=O)C(C)c1ccc(CC(C)C)cc1 (centres undefined) [metoxibutropate] |  | 0 | 0 | > 10 | > 10 | > 10 | 101 | 103 | 97.8 | 99.3 | 100 | 95.5 | 104 | 90.2 | 93.1 | 96.7 |  |  |  |  |  | 118 | 105 | 104 | 97.7 | 107 | 99.2 | 102 | 96.9 | 98.7 | 100 | 0 | 0 | > 10
13 | CC1(C)NC(=O)N(c2ccc([N+](=O)[O-])c(C(F)(F)F)c2)C1=O [nilutamide] |  | 0 | 0 | > 10 | > 10 | > 10 | 96 | 104 | 98.2 | 94.8 | 103 | 102 | 107 | 117 | 107 | 90.5 |  |  |  |  |  | 106 | 100 | 94.7 | 104 | 92.7 | 106 | 97.1 | 104 | 94.8 | 96.8 | 0 | 0 | > 10
14 | C#C[C@]1(O)CC[C@H]2[C@@H]3CCC4=CC(=O)CC[C@@H]4[C@H]3CC[C@@]21CC [norgestrel] | 0 | 0 | 0 |  |  |  |  |  |  |  |  |  |  |  |  |  |  |  |  |  |  |  |  |  |  |  |  |  |  |  |  | 0 |  | 
15 | C=CC(=O)N1CCC(Oc2cc3c(Nc4ccc(Cl)c(Cl)c4F)ncnc3cc2OC)CC1 [poziotinib] | 2.8 | 34.8 | 21.1 | 2 | 0.0016 | 0.0784 | 95.1 | 94.4 | 91.1 | 88 | 19.3 | 88.4 | 86.5 | 80.9 | 85.2 | 60.1 | 105 | 97.3 | 101 | 93.9 | 63.3 | 67.5 | 31.5 | 30 | 27.4 | 18.5 | 86.4 | 60.5 | 58.3 | 45.6 | 8.8 | 6.5 | 6.4 | 
16 | CC1=C(/C=C/C(C)=C/C=C/C(C)=C/CO)C(C)(C)CCC1 [retinol] |  | 0 |  | > 10 | > 10 |  | 102 | 96.9 | 102 | 96.8 | 103 | 108 | 89.4 | 96.7 | 97.8 | 93.2 |  |  |  |  |  | 90.6 | 103 | 101 | 91.7 | 99.5 |  |  |  |  |  | 0 | 0 | > 10
17 | Cn1c([N+](=O)[O-])cnc1COC(N)=O [ronidazole] |  | 0 | 0 | > 10 | > 10 | > 10 | 96.4 | 97.9 | 99.8 | 97.9 | 99.5 | 89.2 | 93.5 | 107 | 95.2 | 101 |  |  |  |  |  | 95.6 | 98.6 | 95.3 | 92 | 103 | 98 | 103 | 93.7 | 98.7 | 108 | 0 | 0 | > 10
18 | CN(C(=O)c1c(O)c2ccccc2n(C)c1=O)c1ccccc1 [roquinimex] |  | 0 | 0 | > 10 | > 10 | > 10 | 96.5 | 101 | 94.1 | 93.8 | 101 | 88.7 | 95.5 | 82.2 | 92.5 | 99.5 |  |  |  |  |  | 85.8 | 96.1 | 96 | 95.4 | 108 | 103 | 93.6 | 98.2 | 97.1 | 105 | 0 | 0 | > 10
19 | Nc1ccc(S(=O)(=O)Nc2ncccn2)cc1 [sulfadiazine] |  | 0.1 |  |  |  |  |  |  |  |  |  |  |  |  |  |  |  |  |  |  |  |  |  |  |  |  |  |  |  |  |  |  |  | 
20 | NS(=O)(=O)c1cc2c(cc1Cl)NC(C(Cl)Cl)NS2(=O)=O (centres undefined) [trichlormethiazide] | 1.4 | 0 | 0 |  |  |  |  |  |  |  |  |  |  |  |  |  |  |  |  |  |  |  |  |  |  |  |  |  |  |  |  | 0 |  | 
